Source: PMC7617971, “OmpA Specifically Modulates the Activity of Enzymes that Reside in the Crowded Bacterial Outer Membrane” (Journal of molecular biology, 2025)

Tests used:
OmpLA = biological target: T1, OmpLA (Escherichia coli, UniProt P0A921); assay: free fatty acid release by ANS displacement from BSA (fluorescence); assay type: biochemical; conditions: DMPG proteoliposomes, CaCl2 added to start, 30 °C
T1 construct: gene pldA; functional dimer, needs divalent cation

PagP = biological target: T2, PagP (Escherichia coli, UniProt P37001); assay: colorimetric release of 4-nitrophenol, A410; assay type: biochemical; conditions: DMPG proteoliposomes, pH 8.5, 2 M urea, room temperature; substrate delivered with methyl-beta-cyclodextrin
T2 sequence (P37001 26-186): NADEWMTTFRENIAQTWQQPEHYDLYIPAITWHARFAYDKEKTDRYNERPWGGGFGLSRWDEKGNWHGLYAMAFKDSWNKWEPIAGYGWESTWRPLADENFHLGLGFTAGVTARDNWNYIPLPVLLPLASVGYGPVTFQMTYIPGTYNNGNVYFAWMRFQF

T1 sequence (P0A921 21-289): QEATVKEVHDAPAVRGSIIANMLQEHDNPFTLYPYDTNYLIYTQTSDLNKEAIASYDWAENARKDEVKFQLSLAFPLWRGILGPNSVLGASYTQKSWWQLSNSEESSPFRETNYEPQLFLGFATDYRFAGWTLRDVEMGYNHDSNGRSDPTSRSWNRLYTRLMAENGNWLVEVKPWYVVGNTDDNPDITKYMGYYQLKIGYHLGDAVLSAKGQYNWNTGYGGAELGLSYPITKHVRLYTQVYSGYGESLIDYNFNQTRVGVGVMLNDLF

Row | SMILES | free fatty acid release by ANS displacement from BSA (fluorescence) (OmpLA) | colorimetric release of 4-nitrophenol, A410 (PagP)
1 | CCCCCCCCCCCCCC(=O)OC[C@H](COP(=O)(O)OCC(O)CO)OC(=O)CCCCCCCCCCCCC (some centres unmarked) [DMPG] | the phospholipase activity of OmpLA was measured in DMPG proteoliposomes | 
2 | CCCCCCCCCCCCCCCC(=O)Oc1ccc([N+](=O)[O-])cc1 [palmitate-4-nitrophenol] |  | MβCD facilitates the rapid delivery of the pNP PagP substrate into liposome bilayers
